# Read-outs that look alike come from different tables or passages of the source.
# Experiments:
# [1] = test system: RCC; parameters: method as in PMID 22056247; conditions: after first line therapy, cited from earlier work
# [2] = Pharmacokinetic analysis of blood samples (noncompartmental); format: in vivo, human; conditions: for AUC(0-t) / Cmax: human
# Protocol: Blood samples were collected pre-, 1, 2, 4, 6, 8, 12, and 24 h post-dose on Days 1 and 2 of Cycles 1 and 2. […] Noncompartmental PK parameters were calculated using WinNonlin (Pharsight, Mountain View, CA).
structure (smiles),measurement,setting,value
CNC(=O)c1ccccc1Sc1ccc2c(/C=C/c3ccccn3)n[nH]c2c1 [axitinib],mPFS,[1]; axitinib arm,6.7 months
"CNC(=O)c1cc(Oc2ccc(NC(=O)Nc3ccc(Cl)c(C(F)(F)F)c3)cc2)ccn1 [sorafenib, reference compound]",AUC(0-t),"[2]; blood, sorafenib, steady state (cycle 2), HCC patients, tivantinib 360 mg BID and sorafenib 400 mg BID, read-out: AUC0-12h",43300 ng·h/mL
same,AUC0-12h,"[2]; sorafenib, steady state (cycle 2), non-HCC patients, tivantinib 360 mg BID and sorafenib 400 mg BID","39,906 ± 20,604 ng*hr/mL"
same,mPFS,[1]; sorafenib arm,4.7 months
"O=C1NC(=O)[C@@H](c2cn3c4c(cccc24)CCC3)[C@@H]1c1c[nH]c2ccccc12 [tivantinib, Tivantinib]",AUC(0-t),"[2]; in vivo, tivantinib, cycle 2, one HCC patient, tivantinib 240 mg BID with sorafenib 400 mg BID, read-out: AUC0-12 h",6690 ng·h/mL
same,Cmax,"[2]; in vivo, tivantinib, cycle 2, one HCC patient, tivantinib 240 mg BID with sorafenib 400 mg BID, read-out: Cmax",879 ng/mL
same,AUC(0-t),"[2]; in vivo, tivantinib, steady state (cycle 2), HCC patients, tivantinib 360 mg BID and sorafenib 400 mg BID, read-out: AUC0-12h",12400 ng·h/mL
same,Cmax,"[2]; in vivo, tivantinib, steady state (cycle 2), HCC patients, tivantinib 360 mg BID and sorafenib 400 mg BID, read-out: mean Cmax",1510 ng/mL
same,AUC(0-t),"[2]; in vivo, tivantinib, steady state (cycle 2), non-HCC patients, tivantinib 360 mg BID and sorafenib 400 mg BID, read-out: AUC0-12h",8740 ng·h/mL
same,Cmax,"[2]; in vivo, tivantinib, steady state (cycle 2), non-HCC patients, tivantinib 360 mg BID and sorafenib 400 mg BID, read-out: mean Cmax",1320 ng/mL

# Reference: publication PMC4295023 (Investigational New Drugs, 2014)
